According to PMC10140010 (Investigational New Drugs, 2023):
“And” between values parts separate entries of the source, which are not always exact repeats. Equal entries are not always repeated. “Also recorded” adds a separate entry of the source.

How the values were obtained:
OATP1B1 = molecular target: T1, OATP1B1 (Homo sapiens, UniProt Q9Y6L6); assay: Uptake inhibitor investigation in HEK293 cells expressing transporter; assay type: in vitro ADME
T1 construct: No ESH6G27; host or cells: HEK293
T1 sequence (Q9Y6L6 1-691): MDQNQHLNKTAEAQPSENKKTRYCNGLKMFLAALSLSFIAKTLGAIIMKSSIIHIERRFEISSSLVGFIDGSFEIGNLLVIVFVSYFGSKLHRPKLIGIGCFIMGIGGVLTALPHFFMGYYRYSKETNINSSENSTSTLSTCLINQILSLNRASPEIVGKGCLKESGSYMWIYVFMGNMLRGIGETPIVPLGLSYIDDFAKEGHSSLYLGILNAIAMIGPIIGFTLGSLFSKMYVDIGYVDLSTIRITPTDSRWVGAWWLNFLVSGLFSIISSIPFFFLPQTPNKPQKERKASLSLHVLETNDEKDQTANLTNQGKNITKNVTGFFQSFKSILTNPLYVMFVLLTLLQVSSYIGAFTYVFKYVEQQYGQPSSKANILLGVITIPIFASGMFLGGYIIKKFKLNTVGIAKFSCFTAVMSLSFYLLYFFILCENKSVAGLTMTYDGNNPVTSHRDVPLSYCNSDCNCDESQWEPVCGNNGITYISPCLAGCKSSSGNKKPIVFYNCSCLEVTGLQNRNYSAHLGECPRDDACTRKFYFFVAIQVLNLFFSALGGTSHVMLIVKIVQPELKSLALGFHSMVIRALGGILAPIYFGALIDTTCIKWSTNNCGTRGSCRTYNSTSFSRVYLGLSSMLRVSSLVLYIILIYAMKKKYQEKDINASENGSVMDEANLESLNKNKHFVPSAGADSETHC
Procedure: Using a stably transfected cell line of HEK293 expressing transporter OATP1B1, OATP1B3 or OCT2, formal substrate investigation tests were performed for three concentration gradients (30 µM, 3 µM, 0.3 µM) of iruplinalkib.

[1] = tested on: phosphorylation of ALK, AKT, ERK, STAT3 in NCI-H3122 cells; assay: Western blot of ALK and downstream signaling phosphorylation; assay type: cell-based, human; conditions: 2 h incubation
Procedure: In general, the cells were exposed to the drug and were harvested for western blot analysis. SDS-PAGE was used to separate the proteins of interest, which were then transferred to a nitrocellulose (NC) filtration membrane and soaked in a blocking solution [5% non-fat dry milk in tris-buffered saline with Tween 20 (TBST)] for 1 h at room temperature. Thereafter, the membrane was probed overnight with primary antibodies at 4℃ and washed three times with TBST. The corresponding secondary antibody diluent was added, incubated at room temperature for 1 h, and washed 3 times with TBST. After adding the enhanced chemiluminescence developer to the NC filtration membrane, it is developed in the imaging system (ChemiDoc™ XRS^+, BIO-RAD). See Supplementary Table 2 for details of the antibodies used.

[2] = set-up: method as in PMID 35087031; conditions: 180 mg, once daily, patients; cited from earlier work
[3] = Plasma protein binding rate (dialysis); assay type: in vitro ADME
Procedure: At three test concentrations (0.2, 2 and 10 µM), the plasma protein binding rate of iruplinalkib is as follows (Fig. 3a). […] With the increase of concentration, the protein binding rates of iruplinalkib in rat plasma decreased gradually, showing a certain concentration dependence, and there was no concentration dependence of protein binding rate observed in other species plasma.

OATP1B3 [4] = molecular target: T2, OATP1B3 (Homo sapiens, UniProt Q9NPD5); assay: Uptake substrate investigation in HEK293 cells expressing transporter; conditions: for Uptake transport activity, Mean: OATP1B3-293; for Uptake transport activity, Mean / Ratio of uptake transit activity / Uptake transport activity, Net value: Suppl. Table 11; for Ratio of uptake transit activity / Uptake transport activity, Net value: OATP1B3-293 vs MOCK293
T2 sequence (Q9NPD5 1-702): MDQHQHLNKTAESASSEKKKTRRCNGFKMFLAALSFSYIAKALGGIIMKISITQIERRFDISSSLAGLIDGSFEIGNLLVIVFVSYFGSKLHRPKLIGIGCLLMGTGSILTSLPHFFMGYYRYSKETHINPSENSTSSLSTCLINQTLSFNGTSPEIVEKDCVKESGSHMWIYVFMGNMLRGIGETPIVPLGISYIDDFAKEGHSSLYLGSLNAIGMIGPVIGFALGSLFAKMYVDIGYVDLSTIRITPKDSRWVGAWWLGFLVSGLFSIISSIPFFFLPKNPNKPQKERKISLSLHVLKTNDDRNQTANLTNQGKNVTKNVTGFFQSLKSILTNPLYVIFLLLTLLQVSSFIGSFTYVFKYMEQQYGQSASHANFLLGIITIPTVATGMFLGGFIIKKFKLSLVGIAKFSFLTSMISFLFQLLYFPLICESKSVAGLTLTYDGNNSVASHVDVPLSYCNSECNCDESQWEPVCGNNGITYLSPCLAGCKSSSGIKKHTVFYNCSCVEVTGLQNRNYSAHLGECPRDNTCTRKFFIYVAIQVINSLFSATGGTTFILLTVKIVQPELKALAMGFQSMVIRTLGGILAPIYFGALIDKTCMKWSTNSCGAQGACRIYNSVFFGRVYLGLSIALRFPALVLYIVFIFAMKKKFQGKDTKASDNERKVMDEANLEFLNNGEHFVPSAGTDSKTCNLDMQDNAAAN
Text: (§1) The engineered NIH-3T3 (CD74-ROS1 fusion gene) cells was obtained from Nanjing GenScript Biotechnology Co., Ltd. The engineered Ba/F3 (SLC34A2-ROS1 fusion gene) cell line was obtained from Kyinno Biotechnology (Beijing) Co., Ltd. The HCC-78 (SLC34A2-ROS1 fusion gene) cell line was purchased from Shanghai Hongshun Biotechnology Co., Ltd. The engineered NIH-3T3 (CD74-ROS1 fusion gene) cells was obtained from Nanjing GenScript Biotechnology Co., Ltd. The engineered HEK293 cell lines with OATP1B1 (Lot. No ESH6G27), OATP1B3 (Lot. No ESH7G27), OCT2 (Lot. No ESH9G27), OAT1 (Lot. No ESHCG27), OAT3 (Lot. […] No ESHDG27) were purchased from GenoMembrane and validated using the specific substrate for each transporter. All cells were cultured at 37℃ in a 5% CO2 atmosphere. Cell culture reagents were obtained from Life Technologies, Inc. See Supplemental Table 1 for details on the source of the cell lines and the media used.

OATP1B3 [5] = assay: as above
Text: as §1

OAT3 = assay: Uptake inhibitor investigation in HEK293 cells expressing transporter; assay type: in vitro ADME
[6] = human, HEK293 cells expressing OATP1B1, probe ATV (atorvastatin), 1 μM, read-out: Inhibition rate
[7] = MOCK293, test substrate 10 μM, no inhibitor, OATP1B3 pre-test
[8] = OATP1B1-293 (so in the source), test substrate 10 μM, no inhibitor, OATP1B3 pre-test
[9] = transporter cells vs MOCK293, test substrate 10 μM, no inhibitor, OATP1B3 pre-test
[10] = human, HEK293 cells expressing OAT3, probe ATV, 1 μM, read-out: Inhibition rate

## COc1cc(N2CCC3(CCN(C)CC3)CC2)ccc1Nc1ncc(Cl)c(Nc2ccccc2P(C)(C)=O)n1 [Iruplinalkib]
OATP1B1; HEK293
  inhibition of OATP1B1 uptake activity: can inhibit the uptake activity
OATP1B1; [6]
  inhibition at 0.5 μM: 26.5%
  inhibition at 5 μM: 28.9%
  inhibition at 50 μM: 67.8%
[1]
  phosphorylation level of STAT3: not STAT3
  phosphorylation levels of ALK, AKT, ERK: reduced
[2]
  free steady-state average concentration (Cavg,ss): 0.127 µM
[3]; 0.2 µM, SD rats plasma
  plasma protein binding rate: high protein binding rate
[3]; 0.2, 2 and 10 µM, Beagle dogs plasma
  plasma protein binding rate: medium protein binding rate
[3]; 0.2, 2 and 10 µM, CD-1 mice plasma
  plasma protein binding rate: medium protein binding rate
[3]; 0.2, 2 and 10 µM, Macaca fascicularis plasma
  plasma protein binding rate: medium protein binding rate
[3]; 0.2, 2 and 10 µM, SD rats plasma
  plasma protein binding rate: medium protein binding rate
[3]; 0.2, 2 and 10 µM, human plasma
  plasma protein binding rate: medium protein binding rate; also recorded: moderate
OATP1B3 [4]; 30 µM, 3 µM, 0.3 µM, HEK293
  uptake transport activity ratio, OATP1B3: less than two
OATP1B3 [4]; HEK293
  uptake substrate of OATP1B3: not an uptake substrate
OATP1B3 [4]; 0.3 μM
  Uptake transport activity, Mean: 8.165 pmol/mg protein/min
  Ratio of uptake transit activity: 1.38
  Uptake transport activity, Net value: 2.263 pmol/mg protein/min
OATP1B3 [4]; 3 μM
  Uptake transport activity, Mean: 57.94 pmol/mg protein/min
  Ratio of uptake transit activity: 1.29
  Uptake transport activity, Net value: 12.964 pmol/mg protein/min
OATP1B3 [4]; 30 μM
  Uptake transport activity, Mean: 641.1 pmol/mg protein/min
  Ratio of uptake transit activity: 1.32
  Uptake transport activity, Net value: 156.58 pmol/mg protein/min
OATP1B3 [5]; MOCK293 (OATP1B3 set), 0.3 μM, Suppl. Table 11
  Uptake transport activity, Mean: 5.902 pmol/mg protein/min
OATP1B3 [5]; MOCK293 (OATP1B3 set), 3 μM, Suppl. Table 11
  Uptake transport activity, Mean: 44.98 pmol/mg protein/min
OATP1B3 [5]; MOCK293 (OATP1B3 set), 30 μM, Suppl. Table 11
  Uptake transport activity, Mean: 484.5 pmol/mg protein/min
OATP1B3 [5]; [7]
  Uptake transport activity, Mean: 230.3 pmol/mg protein/min
  Uptake transport activity, Repeat 1 / Repeat 2: 221.3 pmol/mg protein/min and 239.2 pmol/mg protein/min
OATP1B3 [5]; [8]
  Uptake transport activity, Mean: 327.9 pmol/mg protein/min
  Uptake transport activity, Repeat 1 / Repeat 2: 313.3 pmol/mg protein/min and 342.6 pmol/mg protein/min
OATP1B3 [5]; [9]
  Ratio of uptake transit activity: 1.42
  Uptake transport activity, Net value: 97.7 pmol/mg protein/min
OAT3; HEK293
  inhibitory effect on OAT3: no significant inhibitory effect
OAT3; [10]
  inhibition at 0.5 μM: 26.7%
  inhibition at 5 μM: 22.5%
  inhibition at 50 μM: 31.9%
